Bridge positions count the residues as written; N and C are the ends. Square brackets hold non-standard residues; d marks the D form. Peptide text beside a SMILES is read from it. * marks the point of attachment. ξ: configuration not given here. Phe(4-COOH) = N[C@@H](Cc1ccc(C(=O)O)cc1)C(=O)O; Bip = N[C@@H](Cc1ccc(-c2ccccc2)cc1)C(=O)O; hArg = N=C(N)NCCCC[C@H](N)C(=O)O; hCit = NC(=O)NCCCC[C@H](N)C(=O)O; 4Pal = N[C@@H](Cc1ccncc1)C(=O)O; 3Thi = N[C@@H](Cc1ccsc1)C(=O)O; Cha = N[C@@H](CC1CCCCC1)C(=O)O; aThr = C[C@H](O)[C@H](N)C(=O)O; Thr(3ξ) = CC(O)[C@H](N)C(=O)O; 12Ado = NCCCCCCCCCCCC(=O)O; Carboxymethyl = O=C(O)C*; Orn = NCCC[C@H](N)C(=O)O; Aun = NCCCCCCCCCCC(=O)O; Dab = NCC[C@H](N)C(=O)O; Dap = NC[C@H](N)C(=O)O; AEEA = NCCOCCOCC(=O)O
molecular target: T1, PD-1/PD-L1 interaction (PE-labeled human PD-L1-Ig binding to Jurkat cell line over-expressing human PD-1) (Homo sapiens, UniProt Q15116); experiment: Jurkat-PD-1 Cell Binding High-Content Screening Assay (CBA); type: cell-based; conditions: Jurkat cell line over-expressing human PD-1; PE-labeled PD-L1-Ig 20 nM final; read-out: Jurkat hPD1-PDL1 IC50
T1 construct: expressed in transfected cells; host or cells: Jurkat
T1 sequence (Q15116 25-288): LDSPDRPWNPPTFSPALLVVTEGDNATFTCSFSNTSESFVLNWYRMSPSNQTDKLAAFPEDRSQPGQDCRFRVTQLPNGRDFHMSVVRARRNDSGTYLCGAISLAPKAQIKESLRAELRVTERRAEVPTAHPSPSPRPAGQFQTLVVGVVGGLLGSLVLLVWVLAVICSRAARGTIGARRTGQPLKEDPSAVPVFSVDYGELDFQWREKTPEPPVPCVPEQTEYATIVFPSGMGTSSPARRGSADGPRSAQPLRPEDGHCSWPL
Method in brief: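 Binding of fluorescent PD-L1-Ig (20 nM final) to Jurkat-PD-1 cells was measured by automated imaging after 1 h, following a 2 h compound pre-treatment at 37° C.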

SMILES | IC50
CC(C)C[C@H]1NC(=O)[C@H](CCCN)NC(=O)[C@H](C(C)C)NC(=O)[C@H](Cc2ccc(-c3ccccc3)cc2)NC(=O)[C@H](C(C)C)NC(=O)[C@H](Cc2c[nH]c3ccccc23)NC(=O)[C@H](CC(=O)O)NC(=O)[C@H](Cc2ccc(OCC(=O)O)cc2)NC(=O)[C@H](CCCCNC(=N)N)NC(=O)CSC[C@@H](C(=O)NCCOCCOCC(=O)N[C@@H](CCCCN)C(=O)NCCCCCCCCCCC(=O)O)NC(=O)[C@H]([C@H](C)O)NC(=O)[C@H](C(C)C)NC(=O)[C@H](CC2CCCCC2)NC(=O)[C@H](CC(N)=O)NC1=O [Compound 3163] ({CH2CO}-[hArg]Y(Carboxymethyl)DWV[Bip]V[Orn][dL]N[Cha]V[aThr]C[AEEA]K[Aun]-OH; thioether N-14) | 22.3 nM
CC(C)C[C@H]1NC(=O)[C@H](CCCN)NC(=O)[C@H](C(C)C)NC(=O)[C@H](Cc2ccc(-c3ccccc3)cc2)NC(=O)[C@H](C(C)C)NC(=O)[C@H](Cc2c[nH]c3ccccc23)NC(=O)[C@H](CC(=O)O)NC(=O)[C@H](Cc2ccc(OCC(=O)O)cc2)NC(=O)[C@H](CN)NC(=O)CSC[C@@H](C(=O)NCCOCCOCC(=O)N[C@@H](CCCCN)C(=O)NCCCCCCCCCCC(=O)O)NC(=O)[C@H]([C@H](C)O)NC(=O)[C@H](C(C)C)NC(=O)[C@H](CC2CCCCC2)NC(=O)[C@H](CC(N)=O)NC1=O [Compound 3164] ({CH2CO}-[Dap]Y(Carboxymethyl)DWV[Bip]V[Orn][dL]N[Cha]V[aThr]C[AEEA]K[Aun]-OH; thioether N-14) | 29.9 nM
CC(C)C[C@H]1NC(=O)[C@H](CCCN)NC(=O)[C@H](C(C)C)NC(=O)[C@H](Cc2ccc(-c3ccccc3)cc2)NC(=O)[C@H](C(C)C)NC(=O)[C@H](Cc2c[nH]c3ccccc23)NC(=O)[C@H](CC(=O)O)NC(=O)[C@H](Cc2ccc(OCC(=O)O)cc2)NC(=O)[C@H](CCCCNC(=N)N)NC(=O)CSC[C@@H](C(=O)NCCOCCOCC(=O)N[C@@H](CCCCN)C(=O)NCCCCCCCCCCCC(=O)O)NC(=O)[C@H](C(C)O)NC(=O)[C@H](C(C)C)NC(=O)[C@H](CC2CCCCC2)NC(=O)[C@H](CCN)NC1=O (stereo partly drawn) [Compound 3165] ({CH2CO}-[hArg]Y(Carboxymethyl)DWV[Bip]V[Orn][dL][Dab][Cha]V[Thr(3ξ)]C[AEEA]K[12Ado]-OH; thioether N-14) | 30.6 nM
CC(C)C[C@H]1NC(=O)[C@H](CCCCN)NC(=O)[C@H](C(C)C)NC(=O)[C@H](Cc2ccc(-c3ccccc3)cc2)NC(=O)[C@H](C(C)C)NC(=O)[C@H](Cc2c[nH]c3ccccc23)NC(=O)[C@H](CC(=O)O)NC(=O)[C@H](Cc2ccc(OCC(=O)O)cc2)NC(=O)[C@H](Cc2ccsc2)NC(=O)CSC[C@@H](C(=O)NCCOCCOCC(=O)N[C@@H](CCCN)C(=O)NCCCCCCCCCCC(=O)O)NC(=O)[C@H](C(C)O)NC(=O)[C@H](C(C)C)NC(=O)[C@H](CC2CCCCC2)NC(=O)[C@H](CCN)NC1=O (stereo partly drawn) [Compound 3167] ({CH2CO}-[3Thi]Y(Carboxymethyl)DWV[Bip]VK[dL][Dab][Cha]V[Thr(3ξ)]C[AEEA][Orn][Aun]-OH; thioether N-14) | 59 nM
CC(C)C[C@H]1NC(=O)[C@H](CCCN)NC(=O)[C@H](C(C)C)NC(=O)[C@H](Cc2ccc(-c3ccccc3)cc2)NC(=O)[C@H](C(C)C)NC(=O)[C@H](Cc2c[nH]c3ccccc23)NC(=O)[C@H](CC(=O)O)NC(=O)[C@H](Cc2ccc(OCC(=O)O)cc2)NC(=O)[C@H](Cc2ccsc2)NC(=O)CSC[C@@H](C(=O)N[C@@H](CCCN)C(=O)NCCOCCOCC(=O)NCCCCCCCCCCCC(=O)O)NC(=O)[C@H](C(C)O)NC(=O)[C@H](C(C)C)NC(=O)[C@H](CC2CCCCC2)NC(=O)[C@H](CCN)NC1=O (stereo partly drawn) [Compound 3168] ({CH2CO}-[3Thi]Y(Carboxymethyl)DWV[Bip]V[Orn][dL][Dab][Cha]V[Thr(3ξ)]C[Orn][AEEA][12Ado]-OH; thioether N-14) | 73.6 nM
CC(C)C[C@H]1NC(=O)[C@H](CCCN)NC(=O)[C@H](C(C)C)NC(=O)[C@H](Cc2ccc(-c3ccccc3)cc2)NC(=O)[C@H](C(C)C)NC(=O)[C@H](Cc2c[nH]c3ccccc23)NC(=O)[C@H](CC(=O)O)NC(=O)[C@H](CCCCNC(N)=O)NC(=O)[C@H](Cc2ccc(OCC(=O)O)cc2)NC(=O)CSC[C@@H](C(=O)NCC(=O)NCCOCCOCC(=O)N[C@@H](CCCN)C(=O)NCCCCCCCCCCCC(=O)O)NC(=O)[C@H](CN)NC(=O)[C@H](C(C)C)NC(=O)[C@H](CC2CCCCC2)NC(=O)[C@H](CCN)NC1=O [Compound 3169] ({CH2CO}-Y(Carboxymethyl)[hCit]DWV[Bip]V[Orn][dL][Dab][Cha]V[Dap]CG[AEEA][Orn][12Ado]-OH; thioether N-14) | 20.8 nM
CC(C)C[C@H]1NC(=O)[C@H](CCCN)NC(=O)[C@H](C(C)C)NC(=O)[C@H](Cc2ccc(-c3ccccc3)cc2)NC(=O)[C@H](C(C)C)NC(=O)[C@H](Cc2c[nH]c3ccccc23)NC(=O)[C@H](CC(=O)O)NC(=O)[C@H](Cc2ccncc2)NC(=O)[C@H](Cc2ccc(OCC(=O)O)cc2)NC(=O)CSC[C@@H](C(=O)NCC(=O)NCCOCCOCC(=O)N[C@@H](CCCN)C(=O)NCCCCCCCCCCCC(=O)O)NC(=O)[C@H](CN)NC(=O)[C@H](C(C)C)NC(=O)[C@H](CC2CCCCC2)NC(=O)[C@H](CCN)NC1=O [Compound 3170] ({CH2CO}-Y(Carboxymethyl)[4Pal]DWV[Bip]V[Orn][dL][Dab][Cha]V[Dap]CG[AEEA][Orn][12Ado]-OH; thioether N-14) | 17.5 nM
CC(C)C[C@H]1NC(=O)[C@H](CCCN)NC(=O)[C@H](C(C)C)NC(=O)[C@H](Cc2ccc(-c3ccccc3)cc2)NC(=O)[C@H](C(C)C)NC(=O)[C@H](Cc2c[nH]c3ccccc23)NC(=O)[C@H](CC(=O)O)NC(=O)[C@H](Cc2ccc(C(=O)O)cc2)NC(=O)[C@H](Cc2ccc(OCC(=O)O)cc2)NC(=O)CSC[C@@H](C(=O)NCC(=O)NCCOCCOCC(=O)N[C@@H](CCCN)C(=O)NCCCCCCCCCCCC(=O)O)NC(=O)[C@H](CN)NC(=O)[C@H](C(C)C)NC(=O)[C@H](CC2CCCCC2)NC(=O)[C@H](CCN)NC1=O [Compound 3171] ({CH2CO}-Y(Carboxymethyl)[Phe(4-COOH)]DWV[Bip]V[Orn][dL][Dab][Cha]V[Dap]CG[AEEA][Orn][12Ado]-OH; thioether N-14) | 6.1 nM
CC(C)C[C@H]1NC(=O)[C@H](CCCN)NC(=O)[C@H](C(C)C)NC(=O)[C@H](Cc2ccc(-c3ccccc3)cc2)NC(=O)[C@H](C(C)C)NC(=O)[C@H](Cc2c[nH]c3ccccc23)NC(=O)[C@H](CC(=O)O)NC(=O)[C@H](Cc2ccc(OCC(=O)O)cc2)NC(=O)[C@H](CCCNC(=N)N)NC(=O)CSC[C@@H](C(=O)NCC(=O)NCCOCCOCC(=O)N[C@@H](CCCN)C(=O)NCCCCCCCCCCCC(=O)O)NC(=O)[C@H](CN)NC(=O)[C@H](C(C)C)NC(=O)[C@H](CC2CCCCC2)NC(=O)[C@H](CCN)NC1=O [Compound 3172] ({CH2CO}-RY(Carboxymethyl)DWV[Bip]V[Orn][dL][Dab][Cha]V[Dap]CG[AEEA][Orn][12Ado]-OH; thioether N-14) | 10.7 nM
CC(C)C[C@H]1NC(=O)[C@H](CCCN)NC(=O)[C@H](C(C)C)NC(=O)[C@H](Cc2ccc(-c3ccccc3)cc2)NC(=O)[C@H](C(C)C)NC(=O)[C@H](Cc2c[nH]c3ccccc23)NC(=O)[C@H](CC(=O)O)NC(=O)[C@H](Cc2ccc(OCC(=O)O)cc2)NC(=O)[C@H](CCCCNC(=N)N)NC(=O)CSC[C@@H](C(=O)NCC(=O)NCCOCCOCC(=O)N[C@@H](CCCN)C(=O)NCCCCCCCCCCCC(=O)O)NC(=O)[C@H](CN)NC(=O)[C@H](C(C)C)NC(=O)[C@H](CC2CCCCC2)NC(=O)[C@H](CCN)NC1=O [Compound 3173] ({CH2CO}-[hArg]Y(Carboxymethyl)DWV[Bip]V[Orn][dL][Dab][Cha]V[Dap]CG[AEEA][Orn][12Ado]-OH; thioether N-14) | 21.2 nM

Source: patent US20260022142A1, “MACROCYCLIC IMMUNOMODULATORS” (Bristol-Myers Squibb Company, priority 2022, published 2026)
